In US6855730B2, “3-methylidenyl-2-indolinone modulators of protein kinase” (Sugen, Inc., priority 1998, dated 2005):

target: EGFR (Homo sapiens, UniProt P00533); test: EGFR assay (cellular ELISA, NIH 3T3/C7 cells); type: cell-based; design: expressed in transfected cells; host or cells: NIH 3T3/C7; conditions: read-out: cell EGF IC50
Method: EGF Receptor kinase activity in cells genetically engineered to express human EGF-R can be measured as described below:
Materials and Reagents. • a. […] 05-101 (UBI) (a monoclonal antibody recognizing an EGFR extracellular domain). • c. Anti-phosphotyosine antibody (anti-Ptyr) (polyclonal). • d. Detection antibody: Goat anti-rabbit IgG horse radish peroxidase conjugate, TAGO, Inc. Burlingame, Calif. • e. TBST buffer:
• Keep solution in dark at 4° C. until used. • h. Stock reagents of:
Pre-coat ELISA Plate • 1. […] Coated plates are good for up to 10 days when stored at 4° C. • 2. On day-of use, remove coating buffer and replace with blocking buffer (5% Carnation Instant NonFat Dry Milk in PBS). Incubate the plate, shaking, at room temperature (about 23° C. to 25° C.) for 30 minutes. Just prior to use, remove blocking buffer and wash plate 4 times with TBST buffer.
Seeding Cells • 1. […] Choose dishes having 80-90% confluence for the experiment. Trypsinize cells and stop reaction by adding 10% CS DMEM medium. Suspend cells in DMEM medium (10% CS DMEM medium) and centrifuge once at 1000 rpm at room temperature for 5 minutes. • 3. Resuspend cells in seeding medium (DMEM, 0.5% bovine serum), and count the cells using trypan blue. Viability above 90% is acceptable. Seed cells in DMEM medium (0.5% bovine serum) at a density of 10,000 cells per well, 100 μl per well, in a 96 well microtiter plate. Incubate seeded cells in 5% CO2 at 37° C. for about 40 hours.
Assay Procedures. • 1. Check seeded cells for contamination using an inverted microscope. Dilute test compounds stock (10 mg/ml in DMSO) 1:10 in DMEM medium, then transfer 5 μl to a test well for a test compounds drug dilution of 1:200 and a final DMSO concentration of 1%. Control wells receive DMSO alone. Incubate in 5% CO2 at 37° C. for one hour. • 2. Prepare EGF ligand: dilute stock EGF in DMEM so that upon transfer of 10 μl dilute EGF (1:12 dilution), 25 nM final concentration is attained. • 3. Prepare fresh 10 ml HNTG* sufficient for 100 μl per well wherein HNTG* comprises: HNTG stock (2.0 ml), milli-Q H2O (7.3 ml), EDTA, 100 mM, pH 7.0 (0.5 ml), Na3VO4 0.5 M (0.1 ml) and Na4(P2O7), 0.2 M (0.1 ml). • 4. Place on ice. • 5. After two hours incubation with drug, add prepared EGF ligand to cells, 10 μl per well, to yield a final concentration of 25 nM. Control wells receive DMEM alone. Incubate, shaking, at room temperature, for 5 minutes. • 6. Remove test compound, EGF, and DMEM. Wash cells twice with PBS. Transfer HNTG* to cells, 100 μl per well. Place on ice for 5 minutes. Meanwhile, remove blocking buffer from other ELISA plate and wash with TBST as described above. • 7. With a pipette tip securely fitted to a micropipettor, scrape cells from plate and homogenize cell material by repeatedly aspirating and dispensing the HNTG* lysis buffer. Transfer lysate to a coated, blocked, and washed ELISA plate. Incubate shaking at room temperature for one hour. • 8. Remove lysate and wash 4 times with TBST. Transfer freshly diluted anti-Ptyr antibody to ELISA plate at 100 μl per well. Incubate shaking at room temperature for 30 minutes in the presence of the anti-Ptyr antiserum (1:3000 dilution in TBST). • 9. Remove the anti-Ptyr antibody and wash 4 times with TBST. Transfer the freshly diluted TAGO 30 anti-rabbit IgG antibody to the ELISA plate at 100 μl per well. Incubate shaking at room temperature for 30 minutes (anti-rabbit IgG antibody: 1:3000 dilution in TBST). • 10. Remove detection antibody and wash 4 times with TBST. Transfer freshly prepared ABTS/H2O2 solution to ELISA plate, 100 μl per well. Incubate at room temperature for 20 minutes. ABTS/H2O2 solution: 1.2 μl 30% H2O2 in 10 ml ABTS stock. • 11. Stop reaction by adding 50 μl 5N H2SO4 (optional), and determine O.D. at 410 nm. • 12. The maximal phosphotyrosine signal is determined by subtracting the value of the negative controls from the positive controls. […]

Chain of EGFR (P00533 25-1210): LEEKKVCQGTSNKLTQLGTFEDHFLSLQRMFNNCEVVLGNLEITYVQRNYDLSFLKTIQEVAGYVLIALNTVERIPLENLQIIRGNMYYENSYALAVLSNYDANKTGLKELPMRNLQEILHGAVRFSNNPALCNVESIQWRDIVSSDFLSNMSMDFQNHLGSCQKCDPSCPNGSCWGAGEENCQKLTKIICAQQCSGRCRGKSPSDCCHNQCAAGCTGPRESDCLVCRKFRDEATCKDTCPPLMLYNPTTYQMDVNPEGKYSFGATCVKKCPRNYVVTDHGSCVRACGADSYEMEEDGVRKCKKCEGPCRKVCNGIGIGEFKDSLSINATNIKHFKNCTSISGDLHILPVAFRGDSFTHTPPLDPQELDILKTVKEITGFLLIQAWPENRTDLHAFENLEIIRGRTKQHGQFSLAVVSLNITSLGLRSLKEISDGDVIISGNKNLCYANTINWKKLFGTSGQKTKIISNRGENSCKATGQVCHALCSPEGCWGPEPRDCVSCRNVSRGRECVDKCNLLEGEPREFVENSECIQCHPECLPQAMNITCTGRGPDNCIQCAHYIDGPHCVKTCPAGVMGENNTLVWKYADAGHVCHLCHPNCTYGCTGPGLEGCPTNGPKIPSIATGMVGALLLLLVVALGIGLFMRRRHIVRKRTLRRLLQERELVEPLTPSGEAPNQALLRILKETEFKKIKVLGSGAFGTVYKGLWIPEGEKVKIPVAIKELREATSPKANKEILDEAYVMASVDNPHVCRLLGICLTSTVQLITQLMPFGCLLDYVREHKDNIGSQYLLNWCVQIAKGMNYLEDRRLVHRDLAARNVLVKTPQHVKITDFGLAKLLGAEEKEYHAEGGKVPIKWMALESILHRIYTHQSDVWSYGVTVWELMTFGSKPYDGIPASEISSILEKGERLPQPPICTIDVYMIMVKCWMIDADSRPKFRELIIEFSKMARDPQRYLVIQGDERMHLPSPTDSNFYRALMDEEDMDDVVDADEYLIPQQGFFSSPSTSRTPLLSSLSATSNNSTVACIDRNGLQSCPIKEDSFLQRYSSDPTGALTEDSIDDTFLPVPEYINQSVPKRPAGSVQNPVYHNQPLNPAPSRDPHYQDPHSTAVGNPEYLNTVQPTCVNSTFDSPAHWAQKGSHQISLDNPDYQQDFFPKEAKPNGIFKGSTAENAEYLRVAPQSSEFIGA

| SMILES | IC50 |
| --- | --- |
| COc1ccc(/C=C2/C(=O)Nc3ccccc32)cc1-c1ccsc1 [Example 35, 3-(4-Methoxy-3-thiophen-3-ylbenzylidene)-1,3-dihydroindol-2-one] | > 100 µM |
| COc1cc(C)c(/C=C2/C(=O)Nc3ccc(Br)cc32)cc1C(C)C [Example 36, 5-Bromo-3-(5-isopropyl-4-methoxy-2-methyl-benzylidene)-1,3-dihydroindol-2-one] | 66.8 µM |
| COc1ccc(/C=C2/C(=O)Nc3ccc(F)cc32)cc1-c1ccccc1 [Example 37, 5-Fluoro-3-(6-methoxybiphenyl-3-ylmethylene)-1,3-dihydroindol-2-one] | > 100 µM |
| COc1ccc(/C=C2\C(=O)Nc3cccc(C)c32)cc1C(C)C [Example 38, 3-(3-Isopropyl-4-methoxybenzylidene)-4-methyl-1,3-dihydroindol-2-one] | > 100 µM |
| COc1cc(/C=C2/C(=O)Nc3ccccc32)c(-c2cccs2)cc1OC [Example 39, 3-(4,5-Dimethoxy-2-thiophen-2-ylbenzylidene)-1,3-dihydroindol-2-one] | > 100 µM |
| CC(=O)Nc1ccc2c(c1)NC(=O)/C2=C/c1ccc(OCCN2CCOCC2)c(-c2cccs2)c1 [Example 40, N-{3-[4-(2-Morpholin-4-ylethoxy)-3-thiophen-2-ylbenzylidene]-2-oxo-2,3-dihydro-1H-indol-6-yl}-acetamide] | 79 µM |
| Cc1cccc2c1/C(=C/c1ccc3c(c1)CCC(C)(C)O3)C(=O)N2 [Example 41, 3-(2,2-Dimethylchroman-6-ylmethylene)-4-methyl-1,3-dihydroindol-2-one] | > 100 µM |
| O=C1Nc2ccc(F)cc2/C1=C\c1ccc2c(c1)CCO2 [Example 42, 3-(2,3-Dihydrobenzofuran-5-ylmethylene)-5-fluoro-1,3-dihydroindol-2-one] | > 100 µM |
| COc1ccc(/C=C2/C(=O)Nc3ccc(F)cc32)cc1C1CCCCC1 [Example 43, 3-(3-Cyclohexyl-4-methoxybenzylidene)-5-fluoro-1,3-dihydroindol-2-one] | > 100 µM |
| COc1ccc(/C=C2/C(=O)Nc3ccc(F)cc32)cc1C(C)C [Example 44, 5-Fluoro-3-(3-isopropyl-4-methoxybenzylidene)-1,3-dihydroindol-2-one] | 76.9 µM |
| COc1cc(C)c(/C=C2/C(=O)Nc3ncccc32)cc1C(C)C [Example 45, 3-(5-Isopropyl-4-methoxy-2-methylbenzylidene)-1,3-dihydro-pyrrolo[2,3-b]pyridin-2-one] | > 100 µM |
| CCOc1cccc(-c2cc(C=C3C(=O)Nc4ccccc43)ccc2OC)c1 [Example 46, 3-(3′-Ethoxy-6-methoxybiphenyl-3-ylmethylene)-1,3-dihydroindol-2-one] | > 100 µM |
| COc1ccc(/C=C2/C(=O)Nc3ncccc32)cc1C1CCCC1 [Example 47, 3-(3-Cyclopentyl-4-methoxybenzylidene)-1,3-dihydropyrrolo[2,3-b]pyridin-2-one] | > 100 µM |
| COc1ccc(/C=C2\C(=O)Nc3cccc(C)c32)cc1C1CCCC1 [Example 48, 3-(3-Cyclopentyl-4-methoxybenzylidene)-4-methyl-1,3-dihydroindol-2-one] | > 100 µM |
| COc1cc(C=C2C(=O)Nc3ccccc32)c(-c2ccccc2OC)cc1OC [Example 49, 3-(4,5,2′-Trimethoxybiphenyl-2-ylmethylene)-1,3-dihydroindol-2-one] | > 100 µM |
| CC(=O)Nc1ccc2c(c1)NC(=O)/C2=C/c1ccc(OCCN2CCOCC2)c(-c2ccsc2)c1 [Example 50, N-{3-[4-(2-Morpholin-4-ylethoxy)-3-thiophen-3-ylbenzylidene]-2-oxo-2,3-dihydro-1H-indol-6-yl}-acetamide] | > 100 µM |
| COc1ccc(/C=C2/C(=O)Nc3ccc(Cl)cc32)cc1C1CCCCC1 [Example 51, 5-Chloro-3-(3-cyclohexyl-4-methoxybenzylidene)-1,3-dihydroindol-2-one] | > 100 µM |
